The results in this text go back to patent US8778923B2, “GLP-1 receptor modulators” (Receptos, Inc., priority 2011, dated 2014).

T1 sequence (P43220 24-463): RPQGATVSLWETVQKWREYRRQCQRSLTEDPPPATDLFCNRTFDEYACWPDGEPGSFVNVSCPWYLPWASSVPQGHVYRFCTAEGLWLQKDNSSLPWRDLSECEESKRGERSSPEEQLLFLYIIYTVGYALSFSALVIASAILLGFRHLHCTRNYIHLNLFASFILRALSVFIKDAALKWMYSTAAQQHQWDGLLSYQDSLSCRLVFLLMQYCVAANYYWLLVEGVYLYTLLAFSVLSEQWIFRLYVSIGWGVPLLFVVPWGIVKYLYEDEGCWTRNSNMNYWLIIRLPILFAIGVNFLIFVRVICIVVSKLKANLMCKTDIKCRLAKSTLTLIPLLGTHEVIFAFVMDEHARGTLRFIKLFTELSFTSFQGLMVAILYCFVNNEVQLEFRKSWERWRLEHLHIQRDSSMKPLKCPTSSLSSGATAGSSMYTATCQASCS
T1 sequence (P01275 100-127 partner limits assumed): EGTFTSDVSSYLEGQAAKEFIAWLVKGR

This assay has as its target T1, GLP-1R (Homo sapiens, UniProt P43220).
T1 construct: host or cells: CRE-bla CHO-K1
Put plainly: EC20 GLP-1(9-36) PAM cAMP assay: dose response of compound in the presence of fixed concentration of GLP-1(9-36). The assay is classed as cell-based. To be noted: GLP-1R CRE-bla CHO-K1 cells, compound dose response in presence of fixed concentration of GLP-1(9-36). Summed up: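 GLP-1R CRE-bla CHO-K1 cells in HBSS/10 mM Hepes/0.1% BSA pH 7.4 with IBMX got a 12-point compound dose response plus fixed EC20 GLP-1(9-36), 30 min at 37 °C. cAMP measured by HitHunter luminescence against a standard curve; EC50 and Emax by non-linear regression.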
A general note: cAMP levels reflect the balance of adenylyl cyclase and phosphodiesterase activity.
Broadly, the EC50 is the concentration at which the effect is half-maximal. `CCCCCCCOc1ccc(-c2cnc(-c3ccc(C[C@H](NC(=O)c4ccc(C(C)(C)C)s4)C(=O)N[C@H](Cc4cnc[nH]4)C(=O)O)cc3)nc2)cc1` [Compound 325]: the EC50 lay in the range of 5000 to 10000 nM.
The value for `CCCCCCCOc1ccc(-c2cnc(-c3ccc(C[C@H](NC(=O)c4ccc(C(C)(C)C)s4)C(=O)N[C@@H](CO)C(=O)O)cc3)nc2)cc1` [Compound 326] was less than 800 nM.
The value for `CCCCCCCOc1ccc(-c2cnc(-c3ccc(C[C@H](NC(=O)c4ccc(C(C)(C)C)s4)C(=O)N[C@H](C)C(=O)O)cc3)nc2)cc1` [Compound 327] was less than 800 nM; that for `CCCCCCCOc1ccc(-c2cnc(-c3ccc(C[C@H](NC(=O)c4ccc(C(C)(C)C)s4)C(=O)N4CCC[C@H]4C(=O)O)cc3)nc2)cc1` [Compound 328] was 800 to 2500 nM; that for `CCCCCCCOc1ccc(-c2cnc(-c3ccc(C[C@H](NC(=O)c4ccc(C(C)(C)C)s4)C(=O)N4CCC[C@@H]4C(=O)O)cc3)nc2)cc1` [Compound 329] was 800 to 2500 nM.
As to `CCCCCCCOc1ccc(-c2cnc(-c3ccc(C[C@H](NC(=O)c4ccc(C(C)(C)C)s4)C(=O)N[C@@H](CCC(=O)O)C(=O)O)cc3)nc2)cc1` [Compound 330], the EC50 lay in the range of 800 to 2500 nM.
The value for `CCCCCCCOc1ccc(-c2cnc(-c3ccc(C[C@H](NC(=O)c4ccc(C(C)(C)C)s4)C(=O)N[C@H](CCC(=O)O)C(=O)O)cc3)nc2)cc1` [Compound 331] was 800 to 2500 nM; that for `CCCCCCCOc1ccc(-c2cnc(-c3ccc(C[C@H](NC(=O)c4ccc(C(C)(C)C)s4)C(=O)N[C@@H](Cc4cnc[nH]4)C(=O)O)cc3)nc2)cc1` [Compound 332] was 800 to 2500 nM; that for `CCCCCCCOc1ccc(-c2cnc(-c3ccc(C[C@H](NC(=O)c4ccc(C(C)(C)C)s4)C(=O)N[C@@H](C)C(=O)O)cc3)nc2)cc1` [Compound 333] was less than 800 nM.
The value for `CCCCCCCOc1ccc(-c2cnc(-c3ccc(C[C@H](NC(=O)c4ccc(C(C)(C)C)s4)C(=O)N(C)CCC(=O)O)cc3)nc2)cc1` [Compound 334] was 800 to 2500 nM.
The value for `CCCCCCCOc1ccc(-c2cnc(-c3ccc(C[C@H](NC(=O)c4ccc(C(C)(C)C)s4)C(=O)NC(C)(C)CC(=O)O)cc3)nc2)cc1` [Compound 335] was 800 to 2500 nM; that for `CCCCCCCOc1ccc(-c2cnc(-c3ccc(C[C@H](NC(=O)c4ccc(C(C)(C)C)s4)C(=O)NCCC(=O)O)cc3)nc2)cc1` [Compound 336] was less than 800 nM.
With `CCCCCCCOc1ccc(-c2cnc(-c3ccc(C[C@H](NC(=O)c4ccc(C(C)(C)C)s4)C(=O)NC(CN(C)C)C(=O)O)cc3)nc2)cc1` (stereo partly shown) [Compound 337], the EC50 is 800 to 2500 nM.
For `CCCCCCCOc1ccc(-c2cnc(-c3ccc(C[C@H](NC(=O)c4ccc(C(C)(C)C)s4)C(=O)NC(CN4CCCC4)C(=O)O)cc3)nc2)cc1` (stereo partly shown) [Compound 338], the EC50 was 800 to 2500 nM.
The value for `CCCCCCCOc1ccc(-c2cnc(-c3ccc(C[C@H](NC(=O)c4ccc(C(C)(C)C)s4)C(=O)N4CCNC(C(=O)O)C4)cc3)nc2)cc1` (stereo partly shown) [Compound 339] was 800 to 2500 nM; that for `CCCCCCCOc1ccc(-c2cnc(-c3ccc(C[C@H](NC(=O)c4ccc(C(C)(C)C)s4)C(=O)NCC4(C(=O)O)CC4)cc3)nc2)cc1` [Compound 340] was 800 to 2500 nM; that for `CCCCCCCOc1ccc(-c2cnc(-c3ccc(C[C@H](NC(=O)c4ccc(C(C)(C)C)s4)C(=O)N[C@H](CCC(N)=O)C(=O)O)cc3)nc2)cc1` [Compound 341] was less than 800 nM.
For the compound `CCCCCCOc1ccc(-c2cnc(-c3ccc(C[C@H](NC(=O)c4ccc(C(C)(C)C)s4)C(=O)NCC4(C(=O)O)CCC4)cc3)nc2)cc1` [Compound 342], the EC50 is 800 to 2500 nM.
`CCCCCCCOc1ccc(-c2cnc(-c3ccc(C[C@H](NC(=O)c4ccc(C(C)(C)C)s4)C(=O)N[C@H](CC(=O)O)Cc4ccccc4)cc3)nc2)cc1` [Compound 343]: the EC50 was 800 to 2500 nM.
Next, `CCCCCCCOc1ccc(-c2cnc(-c3ccc(C[C@H](NC(=O)c4ccc(C(C)(C)C)s4)C(=O)N4CCC(C(=O)O)C4)cc3)nc2)cc1` (stereo partly shown) [Compound 344]: less than 800 nM.
The value for `CCCCCCCOc1ccc(-c2cnc(-c3ccc(C[C@H](NC(=O)c4ccc(C(C)(C)C)s4)C(=O)N[C@H](C)CC(=O)O)cc3)nc2)cc1` [Compound 345] was less than 800 nM.
Next, `CCCCCCCOc1ccc(-c2cnc(-c3ccc(C[C@H](NC(=O)c4ccc(C(C)(C)C)s4)C(=O)N[C@@H](C)CC(=O)O)cc3)nc2)cc1` [Compound 346]: 800 to 2500 nM.
Take `CCCCCCCOc1ccc(-c2cnc(-c3ccc(C[C@H](NC(=O)c4ccc(C(C)(C)C)s4)C(=O)N4CCCC(C(=O)O)C4)cc3)nc2)cc1` (stereo partly shown) [Compound 347]: the EC50 is less than 800 nM.
Next, `CCCCCCCOc1ccc(-c2cnc(-c3ccc(C[C@H](NC(=O)c4ccc(C(C)(C)C)s4)C(=O)N4CC[C@@H](C(=O)O)C4)cc3)nc2)cc1` [Compound 348]: 800 to 2500 nM; `CCCCCCCOc1ccc(-c2cnc(-c3ccc(C[C@H](NC(=O)c4ccc(C(C)(C)C)s4)C(=O)N4CC[C@H](C(=O)O)C4)cc3)nc2)cc1` [Compound 349]: less than 800 nM.
Consider `CCCCCCCOc1ccc(-c2cnc(-c3ccc(C[C@H](NC(=O)c4ccc(C(C)(C)C)s4)C(=O)NC(CC(=O)O)c4ccc(O)cc4)cc3)nc2)cc1` (stereo partly shown) [Compound 350], for which the EC50 is less than 800 nM.
Next, `CC(C)(C)c1ccc(-c2cnc(-c3ccc(C[C@H](NC(=O)c4ccc(C(C)(C)C)s4)C(=O)NCC(=O)O)cc3)nc2)cc1` [Compound 351]: less than 800 nM.
The value for `CC(C)(C)c1ccc(-c2cnc(-c3ccc(C[C@H](NC(=O)c4ccc(C(C)(C)C)s4)C(=O)N[C@@H](CO)C(=O)O)cc3)nc2)cc1` [Compound 352] was less than 800 nM.
On to `CC(C)(C)c1ccc(-c2cnc(-c3ccc(C[C@H](NC(=O)c4ccc(C(C)(C)C)s4)C(=O)N[C@H](CCC(N)=O)C(=O)O)cc3)nc2)cc1` [Compound 353], for which the EC50 lay in the range of 800 to 2500 nM.
As for `CC(C)(C)c1ccc(-c2cnc(-c3ccc(C[C@H](NC(=O)c4ccc(C(C)(C)C)s4)C(=O)N[C@H](CO)C(=O)O)cc3)nc2)cc1` [Compound 354], the EC50 is less than 800 nM.
The value for `CC(C)(C)c1ccc(-c2cnc(-c3ccc(C[C@H](NC(=O)c4ccc(C(C)(C)C)s4)C(=O)N[C@H](CC(=O)O)C(=O)O)cc3)nc2)cc1` [Compound 355] was 800 to 2500 nM; that for `CC(C)(C)c1ccc(-c2cnc(-c3ccc(C[C@H](NC(=O)c4ccc(C(C)(C)C)s4)C(=O)N[C@H](Cc4cnc[nH]4)C(=O)O)cc3)nc2)cc1` [Compound 356] was 800 to 2500 nM.
Next, `C[C@@H](NC(=O)[C@H](Cc1ccc(-c2ncc(-c3ccc(C(C)(C)C)cc3)cn2)cc1)NC(=O)c1ccc(C(C)(C)C)s1)C(=O)O` [Compound 357]: 800 to 2500 nM; `CC(C)(C)c1ccc(-c2cnc(-c3ccc(C[C@H](NC(=O)c4ccc(C(C)(C)C)s4)C(=O)N4CCC[C@@H]4C(=O)O)cc3)nc2)cc1` [Compound 358]: 800 to 2500 nM.
Next, `CC(C)(C)c1ccc(-c2cnc(-c3ccc(C[C@H](NC(=O)c4ccc(C(C)(C)C)s4)C(=O)N[C@H](CCC(=O)O)C(=O)O)cc3)nc2)cc1` [Compound 359]: 800 to 2500 nM; `CC(C)(C)c1ccc(-c2cnc(-c3ccc(C[C@H](NC(=O)c4ccc(C(C)(C)C)s4)C(=O)N[C@@H](CCC(N)=O)C(=O)O)cc3)nc2)cc1` [Compound 360]: 800 to 2500 nM; `CC(C)(C)c1ccc(-c2cnc(-c3ccc(C[C@H](NC(=O)c4ccc(C(C)(C)C)s4)C(=O)N[C@@H](CC(=O)O)C(=O)O)cc3)nc2)cc1` [Compound 361]: 800 to 2500 nM.
For `CC(C)(C)c1ccc(-c2cnc(-c3ccc(C[C@H](NC(=O)c4ccc(C(C)(C)C)s4)C(=O)N4CCC[C@H]4C(=O)O)cc3)nc2)cc1` [Compound 362], the EC50 lay in the range of 2500 to 5000 nM.
As to `CC(C)(C)c1ccc(-c2cnc(-c3ccc(C[C@H](NC(=O)c4ccc(C(C)(C)C)s4)C(=O)N[C@@H](CCC(=O)O)C(=O)O)cc3)nc2)cc1` [Compound 363], the EC50 was in the range of 800 to 2500 nM.
Take `C[C@H](NC(=O)[C@H](Cc1ccc(-c2ncc(-c3ccc(C(C)(C)C)cc3)cn2)cc1)NC(=O)c1ccc(C(C)(C)C)s1)C(=O)O` [Compound 364]: the EC50 is 800 to 2500 nM.
The value for `CC(C)(C)c1ccc(-c2cnc(-c3ccc(C[C@H](NC(=O)c4ccc(C(C)(C)C)s4)C(=O)NC(CN4CCCC4)C(=O)O)cc3)nc2)cc1` (stereo partly shown) [Compound 365] was 2500 to 5000 nM.
The value for `CC(C)(C)c1ccc(-c2cnc(-c3ccc(C[C@H](NC(=O)c4ccc(C(C)(C)C)s4)C(=O)NC(CN)C(=O)O)cc3)nc2)cc1` (stereo partly shown) [Compound 366] was 2500 to 5000 nM; that for `CSCC[C@H](NC(=O)[C@H](Cc1ccc(-c2ncc(-c3ccc(C(C)(C)C)cc3)cn2)cc1)NC(=O)c1ccc(C(C)(C)C)s1)C(=O)O` [Compound 367] was 800 to 2500 nM.
With `CSCC[C@@H](NC(=O)[C@H](Cc1ccc(-c2ncc(-c3ccc(C(C)(C)C)cc3)cn2)cc1)NC(=O)c1ccc(C(C)(C)C)s1)C(=O)O` [Compound 368], the EC50 is less than 800 nM.
The value for `CCCCCCCOc1ccc(-c2cnc(-c3ccc(C[C@H](NC(=O)c4cnn(C(C)C)c4)C(=O)NCC(=O)O)cc3)nc2)cc1` [Compound 369] was 800 to 2500 nM; that for `CC(C)n1cc(C(=O)N[C@@H](Cc2ccc(-c3ncc(-c4ccc(C(C)(C)C)cc4)cn3)cc2)C(=O)NCC(=O)O)cn1` [Compound 370] was 800 to 2500 nM.
Next, `CCCCCCCOc1ccc(-c2cnc(-c3ccc(C[C@H](NC(=O)c4ncc(C(C)(C)C)s4)C(=O)NCC(=O)O)cc3)nc2)cc1` [Compound 371]: less than 800 nM; `CCCCCCCOc1ccc(-c2cnc(-c3ccc(C[C@H](NC(=O)c4cnn(C(C)(C)C)c4)C(=O)NCC(=O)O)cc3)nc2)cc1` [Compound 372]: less than 800 nM.
The value for `CC(C)(C)c1ccc(-c2cnc(-c3ccc(C[C@@H](NC(=O)c4ccc(C(C)(C)C)s4)C(=O)NCC(=O)O)cc3)nc2)cc1` [Compound 373] was 800 to 2500 nM.
